# From PubChem BioAssay (NCI)
#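 Where inhibition never reached the appropriate level, the endpoint shown equals the highest concentration tested. Otherwise, values were interpolated linearly from a five-concentration, 48-hour dose response in 96-well plates. The concentration for 50% growth inhibition is given as GI50. At the TGI there is no net growth.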
# What was measured:
# Test in all cases: growth of human tumour cells (NCI), 48 h
# CCRF-CEM leukemia = tested on: CCRF-CEM leukemia
# DU-145 prostate = tested on: DU-145 prostate
# SK-MEL-2 melanoma = tested on: SK-MEL-2 melanoma
# U251 CNS = tested on: U251 CNS
# SF-539 CNS = tested on: SF-539 CNS
# SK-MEL-5 melanoma = tested on: SK-MEL-5 melanoma
# RPMI-8226 leukemia = tested on: RPMI-8226 leukemia
# A498 renal = tested on: A498 renal
# OVCAR-5 ovarian = tested on: OVCAR-5 ovarian
# RXF 393 renal = tested on: RXF 393 renal
# SW-620 colon = tested on: SW-620 colon
# NCI-H460 lung = tested on: NCI-H460 lung
# NCI-H226 lung = tested on: NCI-H226 lung
# SNB-19 CNS = tested on: SNB-19 CNS
# T-47D breast = tested on: T-47D breast
# MDA-MB-435 = tested on: MDA-MB-435
# SK-OV-3 ovarian = tested on: SK-OV-3 ovarian
# SNB-75 CNS = tested on: SNB-75 CNS
# NCI/ADR-RES ovarian = tested on: NCI/ADR-RES ovarian
# HL-60(TB) leukemia = tested on: HL-60(TB) leukemia
# HOP-62 NSCLC = tested on: HOP-62 NSCLC
# HCT-116 colon = tested on: HCT-116 colon
# MDA-MB-231 breast = tested on: MDA-MB-231 breast
# HT29 colon = tested on: HT29 colon
# HCT-15 colon = tested on: HCT-15 colon
# KM12 colon = tested on: KM12 colon
# LOX IMVI melanoma = tested on: LOX IMVI melanoma
# MOLT-4 leukemia = tested on: MOLT-4 leukemia
# HS 578T breast = tested on: HS 578T breast
# A549 NSCLC = tested on: A549 NSCLC
# SF-268 CNS = tested on: SF-268 CNS
# OVCAR-4 ovarian = tested on: OVCAR-4 ovarian
# TK-10 renal = tested on: TK-10 renal
# SR leukemia = tested on: SR leukemia
# BT-549 breast = tested on: BT-549 breast
# HOP-92 NSCLC = tested on: HOP-92 NSCLC
# PC-3 prostate = tested on: PC-3 prostate
# K-562 leukemia = tested on: K-562 leukemia
# UACC-257 melanoma = tested on: UACC-257 melanoma
# MCF7 breast = tested on: MCF7 breast
# COLO 205 colon = tested on: COLO 205 colon
# CAKI-1 renal = tested on: CAKI-1 renal
# SN12C renal = tested on: SN12C renal
# HCC-2998 colon = tested on: HCC-2998 colon
# ACHN renal = tested on: ACHN renal
# 786-0 renal = tested on: 786-0 renal
# UACC-62 melanoma = tested on: UACC-62 melanoma
# OVCAR-3 ovarian = tested on: OVCAR-3 ovarian
# M14 melanoma = tested on: M14 melanoma
# SK-MEL-28 melanoma = tested on: SK-MEL-28 melanoma
# OVCAR-8 ovarian = tested on: OVCAR-8 ovarian
smiles,measurement,setting,value
[C-]#[N+][C@]12C(=O)[C@H](CCC1(C)C)C(C)(C)[C@H]1C(=O)N(C)c3cccc2c31,GI50,CCRF-CEM leukemia,5.84 µM
same,TGI,CCRF-CEM leukemia,> 100 µM
same,GI50,DU-145 prostate,61.6 µM
same,TGI,DU-145 prostate,> 100 µM
same,GI50,SK-MEL-2 melanoma,30.6 µM
same,TGI,SK-MEL-2 melanoma,> 100 µM
same,GI50,U251 CNS,7.08 µM
same,TGI,U251 CNS,> 100 µM
same,GI50,SF-539 CNS,61.6 µM
same,TGI,SF-539 CNS,> 100 µM
same,GI50,SK-MEL-5 melanoma,9.08 µM
same,TGI,SK-MEL-5 melanoma,> 100 µM
same,GI50,RPMI-8226 leukemia,13.1 µM
same,TGI,RPMI-8226 leukemia,> 100 µM
same,GI50,A498 renal,0.81 µM
same,TGI,A498 renal,74.2 µM
same,GI50,OVCAR-5 ovarian,> 100 µM
same,TGI,OVCAR-5 ovarian,> 100 µM
same,GI50,RXF 393 renal,> 100 µM
same,TGI,RXF 393 renal,> 100 µM
same,GI50,SW-620 colon,18.6 µM
same,TGI,SW-620 colon,> 100 µM
same,GI50,NCI-H460 lung,5.02 µM
same,TGI,NCI-H460 lung,> 100 µM
same,GI50,NCI-H226 lung,> 100 µM
same,TGI,NCI-H226 lung,> 100 µM
same,GI50,SNB-19 CNS,70 µM
same,TGI,SNB-19 CNS,> 100 µM
same,GI50,T-47D breast,9.41 µM
same,TGI,T-47D breast,> 100 µM
same,GI50,MDA-MB-435,24.7 µM
same,TGI,MDA-MB-435,> 100 µM
same,GI50,SK-OV-3 ovarian,44.4 µM
same,TGI,SK-OV-3 ovarian,> 100 µM
same,GI50,SNB-75 CNS,64.3 µM
same,TGI,SNB-75 CNS,> 100 µM
same,GI50,NCI/ADR-RES ovarian,> 100 µM
same,TGI,NCI/ADR-RES ovarian,> 100 µM
same,GI50,HL-60(TB) leukemia,4.07 µM
same,TGI,HL-60(TB) leukemia,> 100 µM
same,GI50,HOP-62 NSCLC,9.6 µM
same,TGI,HOP-62 NSCLC,> 100 µM
same,GI50,HCT-116 colon,3.73 µM
same,TGI,HCT-116 colon,> 100 µM
same,GI50,MDA-MB-231 breast,> 100 µM
same,TGI,MDA-MB-231 breast,> 100 µM
same,GI50,HT29 colon,17.6 µM
same,TGI,HT29 colon,> 100 µM
same,GI50,HCT-15 colon,58.5 µM
same,TGI,HCT-15 colon,> 100 µM
same,GI50,KM12 colon,9.99 µM
same,TGI,KM12 colon,> 100 µM
same,GI50,LOX IMVI melanoma,> 100 µM
same,TGI,LOX IMVI melanoma,> 100 µM
same,GI50,MOLT-4 leukemia,10.3 µM
same,TGI,MOLT-4 leukemia,> 100 µM
same,GI50,HS 578T breast,68.5 µM
same,TGI,HS 578T breast,> 100 µM
same,GI50,A549 NSCLC,5.42 µM
same,TGI,A549 NSCLC,> 100 µM
same,GI50,SF-268 CNS,> 100 µM
same,TGI,SF-268 CNS,> 100 µM
same,GI50,OVCAR-4 ovarian,3.82 µM
same,TGI,OVCAR-4 ovarian,> 100 µM
same,GI50,TK-10 renal,> 100 µM
same,TGI,TK-10 renal,> 100 µM
same,GI50,SR leukemia,6.52 µM
same,TGI,SR leukemia,> 100 µM
same,GI50,BT-549 breast,46.2 µM
same,TGI,BT-549 breast,> 100 µM
same,GI50,HOP-92 NSCLC,3.11 µM
same,TGI,HOP-92 NSCLC,> 100 µM
same,GI50,PC-3 prostate,3.27 µM
same,TGI,PC-3 prostate,> 100 µM
same,GI50,K-562 leukemia,4.8 µM
same,TGI,K-562 leukemia,> 100 µM
same,GI50,UACC-257 melanoma,4.07 µM
same,TGI,UACC-257 melanoma,> 100 µM
same,GI50,MCF7 breast,4.54 µM
same,TGI,MCF7 breast,> 100 µM
same,GI50,COLO 205 colon,5.06 µM
same,TGI,COLO 205 colon,> 100 µM
same,GI50,CAKI-1 renal,51.7 µM
same,TGI,CAKI-1 renal,> 100 µM
same,GI50,SN12C renal,41.9 µM
same,TGI,SN12C renal,> 100 µM
same,GI50,HCC-2998 colon,> 100 µM
same,TGI,HCC-2998 colon,> 100 µM
same,GI50,ACHN renal,80.7 µM
same,TGI,ACHN renal,> 100 µM
same,GI50,786-0 renal,> 100 µM
same,TGI,786-0 renal,> 100 µM
same,GI50,UACC-62 melanoma,22.8 µM
same,TGI,UACC-62 melanoma,> 100 µM
same,GI50,OVCAR-3 ovarian,4.13 µM
same,TGI,OVCAR-3 ovarian,> 100 µM
same,GI50,M14 melanoma,29.9 µM
same,TGI,M14 melanoma,> 100 µM
same,GI50,SK-MEL-28 melanoma,> 100 µM
same,TGI,SK-MEL-28 melanoma,> 100 µM
same,GI50,OVCAR-8 ovarian,13.8 µM
same,TGI,OVCAR-8 ovarian,> 100 µM
